Results on 3 molecules are retold here after patent US20230346952A1, “CANNABINOID GLYCOSIDE PRODRUGS AND METHODS OF SYNTHESIS” (priority 2015, published 2023).

The conditions of series [1]: 1,000 mg/kg mixed glycosides by oral gavage; 6 hours; HPLC.
Series [2] deals with safety screen panel of human pharmacological targets (Rattus norvegicus, UniProt P28564). Put plainly: biochemical. Conditions: read-out: percent inhibition: 5-HT1B (antagonist radioligand).
Series [3] addresses safety screen panel of human pharmacological targets (Homo sapiens, UniProt P28223). Put plainly: biochemical. Conditions: read-out: percent inhibition: 5-HT2A (h) (agonist radioligand).
In series [4] the target is T1, safety screen panel of human pharmacological targets (Homo sapiens, UniProt P32238).
T1 sequence (P32238 1-428): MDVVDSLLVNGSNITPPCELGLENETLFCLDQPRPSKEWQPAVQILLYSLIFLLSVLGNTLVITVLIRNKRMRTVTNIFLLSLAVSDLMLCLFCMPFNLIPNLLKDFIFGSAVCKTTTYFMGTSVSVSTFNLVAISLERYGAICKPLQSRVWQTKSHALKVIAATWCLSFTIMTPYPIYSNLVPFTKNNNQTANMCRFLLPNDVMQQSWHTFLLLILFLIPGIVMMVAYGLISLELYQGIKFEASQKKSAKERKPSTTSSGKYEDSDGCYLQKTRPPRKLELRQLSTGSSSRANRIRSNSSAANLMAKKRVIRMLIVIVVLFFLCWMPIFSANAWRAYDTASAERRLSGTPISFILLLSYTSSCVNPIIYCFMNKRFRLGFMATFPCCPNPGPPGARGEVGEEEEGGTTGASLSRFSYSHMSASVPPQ
Put plainly: biochemical. Conditions: read-out: percent inhibition: CCK1 (CCKA) (h) (agonist radioligand).

Series [5] addresses safety screen panel of human pharmacological targets (Homo sapiens, UniProt P37288). Put plainly: biochemical. Conditions: read-out: percent inhibition: V1a (h) (agonist radioligand).
In series [6] the target is safety screen panel of human pharmacological targets (Homo sapiens, UniProt P41143). Put plainly: biochemical. Conditions: read-out: percent inhibition: delta (DOP) (h) (agonist radioligand).
Series [7] addresses safety screen panel of human pharmacological targets (Homo sapiens, UniProt P08588). Description: biochemical. Conditions: read-out: percent inhibition: beta 1 (h) {agonist radioligand).
Series [8] has as its target safety screen panel of human pharmacological targets (Homo sapiens, UniProt P20309). Description: biochemical. Conditions: read-out: percent inhibition: M3 (h) (antagonist radioligand).
Series [9] concerns the target T2, safety screen panel of human pharmacological targets (Homo sapiens, UniProt P35354).
T2 sequence (P35354 18-604): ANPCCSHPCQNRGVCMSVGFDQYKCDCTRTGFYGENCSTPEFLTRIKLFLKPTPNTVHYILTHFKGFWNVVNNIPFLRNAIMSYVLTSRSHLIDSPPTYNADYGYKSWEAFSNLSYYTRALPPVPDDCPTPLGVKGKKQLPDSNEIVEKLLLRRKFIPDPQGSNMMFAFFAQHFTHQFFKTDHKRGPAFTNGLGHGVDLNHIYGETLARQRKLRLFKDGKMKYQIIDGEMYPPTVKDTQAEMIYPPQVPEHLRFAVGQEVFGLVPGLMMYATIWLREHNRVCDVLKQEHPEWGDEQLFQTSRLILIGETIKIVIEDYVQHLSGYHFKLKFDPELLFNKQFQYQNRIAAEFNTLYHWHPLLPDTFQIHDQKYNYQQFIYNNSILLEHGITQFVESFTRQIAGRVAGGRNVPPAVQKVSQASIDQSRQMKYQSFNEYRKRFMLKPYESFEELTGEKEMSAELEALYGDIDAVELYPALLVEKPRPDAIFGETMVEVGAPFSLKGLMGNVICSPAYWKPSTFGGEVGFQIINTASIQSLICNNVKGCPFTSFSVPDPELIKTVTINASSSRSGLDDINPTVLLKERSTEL
Put plainly: biochemical. Conditions: read-out: percent inhibition: COX2(h}).

The target in series [10] is T3, safety screen panel of human pharmacological targets (Homo sapiens, UniProt P08172).
T3 sequence (P08172 1-466): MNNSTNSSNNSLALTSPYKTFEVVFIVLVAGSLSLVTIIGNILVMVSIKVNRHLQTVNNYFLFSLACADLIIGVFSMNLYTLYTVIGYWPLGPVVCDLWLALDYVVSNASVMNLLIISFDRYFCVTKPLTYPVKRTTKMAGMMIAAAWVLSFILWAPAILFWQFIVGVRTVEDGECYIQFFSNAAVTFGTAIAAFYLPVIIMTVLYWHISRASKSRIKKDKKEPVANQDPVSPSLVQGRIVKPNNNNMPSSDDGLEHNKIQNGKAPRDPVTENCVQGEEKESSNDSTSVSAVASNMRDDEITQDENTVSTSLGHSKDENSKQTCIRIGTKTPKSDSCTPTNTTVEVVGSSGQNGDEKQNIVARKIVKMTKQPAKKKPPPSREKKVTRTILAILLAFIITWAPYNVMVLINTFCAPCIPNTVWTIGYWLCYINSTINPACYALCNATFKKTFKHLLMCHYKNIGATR
Put plainly: biochemical. Conditions: read-out: percent inhibition: M2 (h) (antagonist radioligand).

Series [11] has as its target safety screen panel of human pharmacological targets (Homo sapiens, UniProt P31645). Description: biochemical. Conditions: read-out: percent inhibition: 5-HT transporter (h) (antagonist radioligand).
The target in series [12] is safety screen panel of human pharmacological targets (Homo sapiens, UniProt Q12809).
The subject of series [13] is safety screen panel of human pharmacological targets.
Setting [14] is: 10 micromolar test article, Adrenergic a1A receptor.
Setting [15] is: 10 micromolar test article, Adrenergic α2A receptor.
[16] abbreviates: 10 micromolar test article, Benzodiazapine GABA channel.
[17] abbreviates: 10 micromolar test article, Calcium Channel L-Type, Dihydropyridine.
[18] abbreviates: 10 micromolar test article, Dopamine D2S receptor.
Setting [19] is: 10 micromolar test article, N-Methyl-D-aspartate.
Where [20] appears, read: 10 micromolar test article, Phosphodiesterase 4D2.
Setting [21] is: 10 micromolar test article, Sodium channel.
[22] abbreviates: 10 micromolar test article, Voltage-gated potassium channel.
The mark [23] stands for this setting: 10 micromolar test article, results greater than 50% deemed significant.

Where two headings read alike, the source gives them in different places.

Sequence of safety screen panel of human pharmacological targets (Homo sapiens, UniProt P41143) (P41143 whole entry): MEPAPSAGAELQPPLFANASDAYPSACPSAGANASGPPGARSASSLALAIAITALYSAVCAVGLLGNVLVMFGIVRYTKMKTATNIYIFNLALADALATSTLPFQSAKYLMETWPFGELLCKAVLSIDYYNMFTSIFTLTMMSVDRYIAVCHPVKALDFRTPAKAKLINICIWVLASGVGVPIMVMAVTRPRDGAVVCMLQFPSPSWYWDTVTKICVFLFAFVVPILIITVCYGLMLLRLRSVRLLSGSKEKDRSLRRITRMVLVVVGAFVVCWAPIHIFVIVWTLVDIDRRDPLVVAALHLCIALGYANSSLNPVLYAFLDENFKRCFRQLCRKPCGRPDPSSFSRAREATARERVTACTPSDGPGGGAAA
Sequence of safety screen panel of human pharmacological targets (Homo sapiens, UniProt P28223) (P28223 whole entry): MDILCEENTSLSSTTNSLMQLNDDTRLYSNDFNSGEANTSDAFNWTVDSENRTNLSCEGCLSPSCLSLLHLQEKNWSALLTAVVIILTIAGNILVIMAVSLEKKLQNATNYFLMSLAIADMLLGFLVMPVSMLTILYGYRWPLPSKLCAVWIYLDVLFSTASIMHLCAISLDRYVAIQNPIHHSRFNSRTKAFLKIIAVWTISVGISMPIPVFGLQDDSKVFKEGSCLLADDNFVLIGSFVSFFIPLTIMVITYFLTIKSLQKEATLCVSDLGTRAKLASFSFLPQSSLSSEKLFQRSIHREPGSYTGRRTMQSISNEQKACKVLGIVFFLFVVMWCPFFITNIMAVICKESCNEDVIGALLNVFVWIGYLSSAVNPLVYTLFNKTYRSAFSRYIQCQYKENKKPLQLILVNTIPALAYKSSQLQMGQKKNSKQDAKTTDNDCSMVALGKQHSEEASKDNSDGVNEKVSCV
Sequence of safety screen panel of human pharmacological targets (Homo sapiens, UniProt P31645) (P31645 whole entry): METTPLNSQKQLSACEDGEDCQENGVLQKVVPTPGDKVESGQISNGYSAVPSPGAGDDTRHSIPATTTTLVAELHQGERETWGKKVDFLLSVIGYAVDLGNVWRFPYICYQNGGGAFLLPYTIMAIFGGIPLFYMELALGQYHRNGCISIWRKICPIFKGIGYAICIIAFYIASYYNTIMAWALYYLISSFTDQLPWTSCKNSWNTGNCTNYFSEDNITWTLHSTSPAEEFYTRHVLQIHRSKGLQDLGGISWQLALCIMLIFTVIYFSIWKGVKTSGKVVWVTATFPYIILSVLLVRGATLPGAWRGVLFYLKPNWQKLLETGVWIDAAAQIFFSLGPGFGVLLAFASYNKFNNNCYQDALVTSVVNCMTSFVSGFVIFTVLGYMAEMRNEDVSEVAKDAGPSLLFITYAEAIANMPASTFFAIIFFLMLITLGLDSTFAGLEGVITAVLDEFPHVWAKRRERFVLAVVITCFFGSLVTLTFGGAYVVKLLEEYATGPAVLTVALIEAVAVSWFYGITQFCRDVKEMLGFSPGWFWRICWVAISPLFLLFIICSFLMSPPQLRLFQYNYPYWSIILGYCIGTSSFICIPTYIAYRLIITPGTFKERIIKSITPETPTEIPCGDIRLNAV
Sequence of safety screen panel of human pharmacological targets (Homo sapiens, UniProt P08588) (P08588 whole entry): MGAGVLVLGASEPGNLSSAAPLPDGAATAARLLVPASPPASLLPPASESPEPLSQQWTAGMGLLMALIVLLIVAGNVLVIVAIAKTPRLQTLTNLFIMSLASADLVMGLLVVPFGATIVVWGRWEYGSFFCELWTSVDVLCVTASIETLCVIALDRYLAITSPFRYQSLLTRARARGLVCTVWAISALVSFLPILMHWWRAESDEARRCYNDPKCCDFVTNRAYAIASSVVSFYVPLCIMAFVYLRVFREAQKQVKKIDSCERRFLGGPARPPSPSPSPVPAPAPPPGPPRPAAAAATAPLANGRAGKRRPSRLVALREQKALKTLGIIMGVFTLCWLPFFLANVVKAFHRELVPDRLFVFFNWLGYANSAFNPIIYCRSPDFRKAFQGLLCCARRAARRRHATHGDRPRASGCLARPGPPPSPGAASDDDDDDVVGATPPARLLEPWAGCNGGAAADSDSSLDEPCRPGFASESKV
Sequence of safety screen panel of human pharmacological targets (Rattus norvegicus, UniProt P28564) (P28564 whole entry): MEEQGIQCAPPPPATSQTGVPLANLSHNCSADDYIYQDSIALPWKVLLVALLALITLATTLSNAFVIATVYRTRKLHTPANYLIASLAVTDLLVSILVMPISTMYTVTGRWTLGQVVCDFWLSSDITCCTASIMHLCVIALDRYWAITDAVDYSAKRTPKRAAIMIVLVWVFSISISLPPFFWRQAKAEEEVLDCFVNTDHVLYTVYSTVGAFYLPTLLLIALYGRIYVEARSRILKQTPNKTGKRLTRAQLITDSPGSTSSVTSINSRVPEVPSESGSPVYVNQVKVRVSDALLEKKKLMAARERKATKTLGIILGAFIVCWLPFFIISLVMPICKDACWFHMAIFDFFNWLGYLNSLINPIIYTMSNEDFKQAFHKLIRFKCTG
Sequence of safety screen panel of human pharmacological targets (Homo sapiens, UniProt P37288) (P37288 whole entry): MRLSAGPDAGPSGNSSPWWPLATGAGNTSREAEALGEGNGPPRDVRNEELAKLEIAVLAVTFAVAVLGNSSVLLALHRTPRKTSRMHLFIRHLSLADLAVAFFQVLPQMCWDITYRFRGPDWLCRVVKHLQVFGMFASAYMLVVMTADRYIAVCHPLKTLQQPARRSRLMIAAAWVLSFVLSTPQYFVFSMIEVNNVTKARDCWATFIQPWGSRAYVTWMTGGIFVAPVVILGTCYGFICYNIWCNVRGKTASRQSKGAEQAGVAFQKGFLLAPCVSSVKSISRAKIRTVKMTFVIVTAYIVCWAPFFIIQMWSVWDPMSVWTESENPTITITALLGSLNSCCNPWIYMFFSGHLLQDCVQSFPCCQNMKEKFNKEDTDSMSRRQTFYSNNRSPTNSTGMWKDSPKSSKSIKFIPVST
Sequence of safety screen panel of human pharmacological targets (Homo sapiens, UniProt P20309) (P20309 whole entry): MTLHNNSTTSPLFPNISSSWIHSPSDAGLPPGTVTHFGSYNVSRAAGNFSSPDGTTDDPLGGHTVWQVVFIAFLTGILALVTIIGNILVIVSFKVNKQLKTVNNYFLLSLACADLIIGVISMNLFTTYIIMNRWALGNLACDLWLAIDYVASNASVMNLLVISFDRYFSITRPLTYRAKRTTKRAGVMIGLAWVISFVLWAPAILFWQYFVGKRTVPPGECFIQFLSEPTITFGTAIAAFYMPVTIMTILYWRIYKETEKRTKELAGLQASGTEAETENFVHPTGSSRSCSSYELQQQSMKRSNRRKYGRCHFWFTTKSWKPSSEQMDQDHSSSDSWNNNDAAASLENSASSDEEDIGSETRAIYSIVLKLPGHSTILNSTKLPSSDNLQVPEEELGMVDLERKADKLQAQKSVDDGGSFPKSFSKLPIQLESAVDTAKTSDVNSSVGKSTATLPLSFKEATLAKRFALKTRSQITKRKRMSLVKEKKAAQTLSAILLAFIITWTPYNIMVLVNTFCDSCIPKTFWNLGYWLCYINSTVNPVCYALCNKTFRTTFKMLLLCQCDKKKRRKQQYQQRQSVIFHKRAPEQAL
Sequence of safety screen panel of human pharmacological targets (Homo sapiens, UniProt Q12809) (Q12809 whole entry): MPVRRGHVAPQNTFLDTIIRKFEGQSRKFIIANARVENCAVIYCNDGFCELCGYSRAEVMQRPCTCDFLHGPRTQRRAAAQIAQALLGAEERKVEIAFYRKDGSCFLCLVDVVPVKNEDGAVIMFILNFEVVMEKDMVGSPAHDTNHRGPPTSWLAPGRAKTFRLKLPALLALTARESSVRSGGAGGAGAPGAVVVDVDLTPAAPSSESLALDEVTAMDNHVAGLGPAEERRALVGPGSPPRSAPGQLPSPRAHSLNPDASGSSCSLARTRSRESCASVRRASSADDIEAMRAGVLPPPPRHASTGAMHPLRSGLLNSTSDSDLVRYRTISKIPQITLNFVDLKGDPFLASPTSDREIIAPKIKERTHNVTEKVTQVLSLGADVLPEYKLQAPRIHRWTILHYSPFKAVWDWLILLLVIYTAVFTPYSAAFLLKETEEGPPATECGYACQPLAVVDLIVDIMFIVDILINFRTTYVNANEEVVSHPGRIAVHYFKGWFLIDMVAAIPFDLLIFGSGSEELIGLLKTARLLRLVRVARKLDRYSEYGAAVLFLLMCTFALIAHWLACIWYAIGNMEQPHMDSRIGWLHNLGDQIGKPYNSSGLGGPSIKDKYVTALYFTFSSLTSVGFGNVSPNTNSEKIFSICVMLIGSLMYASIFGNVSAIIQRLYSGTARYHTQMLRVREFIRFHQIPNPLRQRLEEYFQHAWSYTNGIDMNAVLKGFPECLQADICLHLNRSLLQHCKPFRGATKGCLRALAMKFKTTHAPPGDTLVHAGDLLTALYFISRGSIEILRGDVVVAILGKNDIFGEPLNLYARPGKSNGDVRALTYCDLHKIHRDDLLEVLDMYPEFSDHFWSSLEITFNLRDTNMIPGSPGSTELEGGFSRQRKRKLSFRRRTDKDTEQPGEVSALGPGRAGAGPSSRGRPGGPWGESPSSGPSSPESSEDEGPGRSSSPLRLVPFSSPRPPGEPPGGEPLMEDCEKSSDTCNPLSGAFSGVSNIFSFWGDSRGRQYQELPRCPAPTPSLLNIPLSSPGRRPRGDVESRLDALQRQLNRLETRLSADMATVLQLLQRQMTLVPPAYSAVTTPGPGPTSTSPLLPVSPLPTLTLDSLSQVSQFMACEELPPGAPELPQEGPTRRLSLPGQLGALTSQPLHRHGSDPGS

Regarding `CCCCCc1cc(O)c2c(c1)OC(C)(C)[C@@H]1CCC(C)=C[C@@H]21` [VB301, Δ9-Terahydrocannabinol, reference compound], in series [1], the “change of share of total THC-glycosides in large intestine extracts versus small intestine extracts” value is “appreciable amounts” and the “change of share of total THC-glycosides in small intestine extracts versus administered mixture” value is given as “below the limit of detection”. In addition, in [2], the inhibition at 10 µM amounted to 26%. In series [3], the inhibition at 10 µM is 92%. The inhibition at 10 µM in series [4] amounted to 87%. The inhibition at 10 µM in series [5] was -2%. For the same molecule, the inhibition at 10 µM in [6] amounted to 43%. Besides, in series [7], the inhibition at 10 µM came to 1%. Moreover, the inhibition at 10 µM in [8] is 23%. In series [9], the inhibition at 10 µM is -6%. Moreover, in [10], the inhibition at 10 µM was determined as 21%. In addition, the inhibition at 10 µM in series [11] came out at 91%. The “percent inhibition: Potassium Channel hERG (human)- [3H] Dofetilide” value (“percent inhibition … [3H] Dofetilide” for short) in [12] (human) amounted to 67%. In addition, in series [13], the “percent inhibition: BZD (central) (agonist radioligand)” value (shortened to “percent inhibition: BZD (central)”) came out at 2%, the “percent inhibition: Ca2+ channel (L. dihydropyridine site) (antagonist radioligand)” value (shortened to “percent inhibition: Ca2+ channel”) was 59%, the “percent inhibition: D2S (h) (agonist radioligand)” value (“percent inhibition: D2S (h)” below) is listed as 13% and the “percent inhibition: KV channel (antagonist radioligand)” value (shortened to “percent inhibition: KV channel”) amounted to 5%. For the same molecule, in [13], the “percent inhibition: NMDA (antagonist radioligand)” value (from here on “percent inhibition: NMDA”) was 10%, the “percent inhibition: Na+ channel (site 2) (antagonist radioligand)” value (shortened to “percent inhibition: Na+ channel”) is 65%, the “percent inhibition: PDE4D2 (h)” value was -11% and the “percent inhibition: alpha 1A(h) (antagonist radioligand)” value (“percent inhibition: alpha 1A(h)” for short) turned out to be 6%. Moreover, in [13], the “percent inhibition: alpha 2A (h) (antagonist radioligand)” value (from here on “percent inhibition: alpha 2A (h)”) stood at 94%. The “number of the 44 pharmacological targets whose binding is significantly inhibited or disrupted” value in series [13] (human) is reported as 16.
Turning to `CCCCCc1cc(O[C@@H]2O[C@H](CO)[C@@H](O)[C@H](O)[C@H]2O)c2c(c1)OC(C)(C)[C@@H]1CCC(C)=C[C@@H]21` [VB302, Δ9THC-1-O-glucopyranoside], the “change of share of total THC-glycosides in large intestine extracts versus small intestine extracts” value in series [1] was “further increases”. In addition, the “change of share of total THC-glycosides in small intestine extracts versus administered mixture” value in [1] is on record as “increases”. Moreover, the inhibition at 10 µM is -1% in series [2]; 11% in series [3]; -31% in series [4]; 8% in series [5]; 5% in [6]; 7% in series [7]. The inhibition at 10 µM was 11% in series [8], -20% in series [9], 2% in [10] and -1% in series [11]. In series [12] (10 micromolar test article), the “percent inhibition … [3H] Dofetilide” value is -23%. Also, the “percent inhibition: alpha 1A(h)” value in series [13] (setting [14]) is listed as -5%. Also, in series [13] (setting [15]), the “percent inhibition: alpha 2A (h)” value was 0%. Also, the “percent inhibition: BZD (central)” value in series [13] (setting [16]) is recorded as -10%. Moreover, in [13] (setting [17]), the “percent inhibition: Ca2+ channel” value is recorded as 22%. The “percent inhibition: D2S (h)” value in series [13] (setting [18]) is 22%. For the same molecule, in series [13] (setting [19]), the “percent inhibition: NMDA” value is 8%. Besides, the “percent inhibition: PDE4D2 (h)” value in [13] (setting [20]) is -8%. Moreover, the “percent inhibition: Na+ channel” value in [13] (setting [21]) is listed as 13%. The “percent inhibition: KV channel” value in [13] (setting [22]) worked out at 1%. Also, the “number of the 44 pharmacological targets whose binding is significantly inhibited or disrupted” value in series [13] (setting [23]) was “did not significantly alter any of the targets”.
With `CCCCCc1cc(O[C@@H]2O[C@H](CO[C@@H]3O[C@H](CO)[C@@H](O)[C@H](O)[C@H]3O)[C@@H](O[C@@H]3O[C@H](CO)[C@@H](O)[C@H](O)[C@H]3O)[C@H](O)[C@H]2O)c2c(c1)OC(C)(C)[C@@H]1CCC(C)=C[C@@H]21` [VB311], in series [1], the “change of share of total THC-glycosides in large intestine extracts versus small intestine extracts” value is recorded as “further decreases”. In addition, in series [1], the “change of share of total THC-glycosides in small intestine extracts versus administered mixture” value is “sharp decrease”. For the same molecule, the inhibition at 10 µM in series [2] was -7%; in series [3] it was 4%; in series [4], 17%; in [5], 7%; in [6], 0%; in series [7] it was 0%. In addition, the inhibition at 10 µM in [8] was -5%; in series [9], 8%; in series [10], -4%; in [11], 3%. For the same molecule, in [12] (10 micromolar test article), the “percent inhibition … [3H] Dofetilide” value is recorded as -10%. Also, the “percent inhibition: alpha 1A(h)” value in series [13] (setting [14]) is -3%. In [13] (setting [15]), the “percent inhibition: alpha 2A (h)” value came to 8%. For the same molecule, in series [13] (setting [16]), the “percent inhibition: BZD (central)” value is listed as 16%. In [13] (setting [17]), the “percent inhibition: Ca2+ channel” value was -7%. In [13] (setting [18]), the “percent inhibition: D2S (h)” value was -6%. Further, in series [13] (setting [19]), the “percent inhibition: NMDA” value was found to be 3%. The “percent inhibition: PDE4D2 (h)” value in series [13] (setting [20]) is given as -6%. Besides, the “percent inhibition: Na+ channel” value in series [13] (setting [21]) came out at 5%. Besides, in series [13] (setting [22]), the “percent inhibition: KV channel” value was -5%. In addition, the “number of the 44 pharmacological targets whose binding is significantly inhibited or disrupted” value in series [13] (setting [23]) is “did not significantly alter any of the targets”.
